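Compound exposure: 48 hours, 5 concentrations, 96-well plates. The concentration for 50% growth inhibition is given as GI50. TGI: concentration producing complete growth inhibition.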
What was measured:
Assay in all cases: NCI-60 cell line screen, 48 h
T-47D breast = system: T-47D breast
KM12 colon = system: KM12 colon
NCI/ADR-RES ovarian = system: NCI/ADR-RES ovarian
RPMI-8226 leukemia = system: RPMI-8226 leukemia
BT-549 breast = system: BT-549 breast
HOP-92 NSCLC = system: HOP-92 NSCLC
UO-31 renal = system: UO-31 renal
OVCAR-5 ovarian = system: OVCAR-5 ovarian
HCT-116 colon = system: HCT-116 colon
ACHN renal = system: ACHN renal
HS 578T breast = system: HS 578T breast
A498 renal = system: A498 renal
HOP-62 NSCLC = system: HOP-62 NSCLC
HCT-15 colon = system: HCT-15 colon
A549 NSCLC = system: A549 NSCLC
786-0 renal = system: 786-0 renal
MCF7 breast = system: MCF7 breast
CCRF-CEM leukemia = system: CCRF-CEM leukemia
HL-60(TB) leukemia = system: HL-60(TB) leukemia
U251 CNS = system: U251 CNS
SW-620 colon = system: SW-620 colon
PC-3 prostate = system: PC-3 prostate
NCI-H226 lung = system: NCI-H226 lung
HT29 colon = system: HT29 colon
SF-539 CNS = system: SF-539 CNS
OVCAR-8 ovarian = system: OVCAR-8 ovarian
MDA-MB-468 breast = system: MDA-MB-468 breast
NCI-H23 lung = system: NCI-H23 lung
MDA-MB-435 = system: MDA-MB-435
SK-OV-3 ovarian = system: SK-OV-3 ovarian
SN12C renal = system: SN12C renal
COLO 205 colon = system: COLO 205 colon
TK-10 renal = system: TK-10 renal
NCI-H522 lung = system: NCI-H522 lung
LOX IMVI melanoma = system: LOX IMVI melanoma
CAKI-1 renal = system: CAKI-1 renal
SNB-75 CNS = system: SNB-75 CNS
MDA-MB-231 breast = system: MDA-MB-231 breast
DU-145 prostate = system: DU-145 prostate
RXF 393 renal = system: RXF 393 renal
NCI-H460 lung = system: NCI-H460 lung
SF-295 CNS = system: SF-295 CNS
SF-268 CNS = system: SF-268 CNS
OVCAR-3 ovarian = system: OVCAR-3 ovarian
EKVX NSCLC = system: EKVX NSCLC
MALME-3M melanoma = system: MALME-3M melanoma
UACC-62 melanoma = system: UACC-62 melanoma
SK-MEL-2 melanoma = system: SK-MEL-2 melanoma
IGROV1 ovarian = system: IGROV1 ovarian
HCC-2998 colon = system: HCC-2998 colon
M14 melanoma = system: M14 melanoma
SK-MEL-28 melanoma = system: SK-MEL-28 melanoma
UACC-257 melanoma = system: UACC-257 melanoma
SNB-19 CNS = system: SNB-19 CNS
K-562 leukemia = system: K-562 leukemia
SK-MEL-5 melanoma = system: SK-MEL-5 melanoma

**Q.** For `CN(C)c1nc(NCCNS(=O)(=O)c2ccc(C3=Nc4c(N)nc(N)nc4NC(c4ccc(Cl)cc4)C3)cc2)nc(Nc2ccc(F)cc2)n1` (configuration not stated), which GI50 (T-47D breast) is on record?
**A.** 7.93 µM

**Q.** And the TGI (T-47D breast)?
**A.** > 100 µM

**Q.** What about the GI50 (KM12 colon) of the same molecule?
**A.** 3.98 µM

**Q.** What about the TGI (KM12 colon) of the same molecule?
**A.** > 100 µM

**Q.** What about the GI50 (NCI/ADR-RES ovarian) of the same molecule?
**A.** > 100 µM

**Q.** And the TGI (NCI/ADR-RES ovarian)?
**A.** > 100 µM

**Q.** And the GI50 (RPMI-8226 leukemia)?
**A.** 3.19 µM

**Q.** And the TGI (RPMI-8226 leukemia)?
**A.** > 100 µM

**Q.** And the GI50 (BT-549 breast)?
**A.** 3.96 µM

**Q.** And the TGI (BT-549 breast)?
**A.** 28.7 µM

**Q.** What about the GI50 (HOP-92 NSCLC) of the same molecule?
**A.** 2.53 µM

**Q.** And the TGI (HOP-92 NSCLC)?
**A.** 13.2 µM

**Q.** And the GI50 (UO-31 renal)?
**A.** > 100 µM

**Q.** What about the TGI (UO-31 renal) of the same molecule?
**A.** > 100 µM

**Q.** And the GI50 (OVCAR-5 ovarian)?
**A.** > 100 µM

**Q.** And the TGI (OVCAR-5 ovarian)?
**A.** > 100 µM

**Q.** What about the GI50 (HCT-116 colon) of the same molecule?
**A.** 3.77 µM

**Q.** What about the TGI (HCT-116 colon) of the same molecule?
**A.** > 100 µM

**Q.** What about the GI50 (ACHN renal) of the same molecule?
**A.** > 100 µM

**Q.** And the TGI (ACHN renal)?
**A.** > 100 µM

**Q.** And the GI50 (HS 578T breast)?
**A.** 7.15 µM

**Q.** What about the TGI (HS 578T breast) of the same molecule?
**A.** > 100 µM

**Q.** And the GI50 (A498 renal)?
**A.** 58.4 µM

**Q.** And the TGI (A498 renal)?
**A.** > 100 µM

**Q.** What about the GI50 (HOP-62 NSCLC) of the same molecule?
**A.** > 100 µM

**Q.** And the TGI (HOP-62 NSCLC)?
**A.** > 100 µM

**Q.** What about the GI50 (HCT-15 colon) of the same molecule?
**A.** > 100 µM

**Q.** What about the TGI (HCT-15 colon) of the same molecule?
**A.** > 100 µM

**Q.** What about the GI50 (A549 NSCLC) of the same molecule?
**A.** > 100 µM

**Q.** And the TGI (A549 NSCLC)?
**A.** > 100 µM

**Q.** And the GI50 (786-0 renal)?
**A.** 6.21 µM

**Q.** What about the TGI (786-0 renal) of the same molecule?
**A.** > 100 µM

**Q.** And the GI50 (MCF7 breast)?
**A.** 2.89 µM

**Q.** And the TGI (MCF7 breast)?
**A.** > 100 µM

**Q.** And the GI50 (CCRF-CEM leukemia)?
**A.** 2.92 µM

**Q.** What about the TGI (CCRF-CEM leukemia) of the same molecule?
**A.** > 100 µM

**Q.** And the GI50 (HL-60(TB) leukemia)?
**A.** 2.72 µM

**Q.** And the TGI (HL-60(TB) leukemia)?
**A.** 13.3 µM

**Q.** And the GI50 (U251 CNS)?
**A.** 5.14 µM

**Q.** And the TGI (U251 CNS)?
**A.** > 100 µM

**Q.** What about the GI50 (SW-620 colon) of the same molecule?
**A.** 5.95 µM

**Q.** What about the TGI (SW-620 colon) of the same molecule?
**A.** > 100 µM

**Q.** What about the GI50 (PC-3 prostate) of the same molecule?
**A.** 3.44 µM

**Q.** What about the TGI (PC-3 prostate) of the same molecule?
**A.** > 100 µM

**Q.** What about the GI50 (NCI-H226 lung) of the same molecule?
**A.** > 100 µM

**Q.** What about the TGI (NCI-H226 lung) of the same molecule?
**A.** > 100 µM

**Q.** And the GI50 (HT29 colon)?
**A.** 2.68 µM

**Q.** And the TGI (HT29 colon)?
**A.** 7.54 µM

**Q.** What about the GI50 (SF-539 CNS) of the same molecule?
**A.** 3.3 µM

**Q.** What about the TGI (SF-539 CNS) of the same molecule?
**A.** > 100 µM

**Q.** What about the GI50 (OVCAR-8 ovarian) of the same molecule?
**A.** > 100 µM

**Q.** And the TGI (OVCAR-8 ovarian)?
**A.** > 100 µM

**Q.** And the GI50 (MDA-MB-468 breast)?
**A.** 1.92 µM

**Q.** What about the TGI (MDA-MB-468 breast) of the same molecule?
**A.** 4.92 µM

**Q.** What about the GI50 (NCI-H23 lung) of the same molecule?
**A.** 72.7 µM

**Q.** And the TGI (NCI-H23 lung)?
**A.** > 100 µM

**Q.** What about the GI50 (MDA-MB-435) of the same molecule?
**A.** 5.17 µM

**Q.** And the TGI (MDA-MB-435)?
**A.** > 100 µM

**Q.** And the GI50 (SK-OV-3 ovarian)?
**A.** > 100 µM

**Q.** What about the TGI (SK-OV-3 ovarian) of the same molecule?
**A.** > 100 µM

**Q.** What about the GI50 (SN12C renal) of the same molecule?
**A.** 7.38 µM

**Q.** What about the TGI (SN12C renal) of the same molecule?
**A.** > 100 µM

**Q.** And the GI50 (COLO 205 colon)?
**A.** 5.65 µM

**Q.** What about the TGI (COLO 205 colon) of the same molecule?
**A.** 25.6 µM

**Q.** What about the GI50 (TK-10 renal) of the same molecule?
**A.** > 100 µM

**Q.** What about the TGI (TK-10 renal) of the same molecule?
**A.** > 100 µM

**Q.** What about the GI50 (NCI-H522 lung) of the same molecule?
**A.** 16 µM

**Q.** What about the TGI (NCI-H522 lung) of the same molecule?
**A.** > 100 µM

**Q.** And the GI50 (LOX IMVI melanoma)?
**A.** 1.77 µM

**Q.** What about the TGI (LOX IMVI melanoma) of the same molecule?
**A.** 3.55 µM

**Q.** What about the GI50 (CAKI-1 renal) of the same molecule?
**A.** 8.07 µM

**Q.** And the TGI (CAKI-1 renal)?
**A.** > 100 µM

**Q.** What about the GI50 (SNB-75 CNS) of the same molecule?
**A.** 3.76 µM

**Q.** What about the TGI (SNB-75 CNS) of the same molecule?
**A.** > 100 µM

**Q.** What about the GI50 (MDA-MB-231 breast) of the same molecule?
**A.** 3.73 µM

**Q.** What about the TGI (MDA-MB-231 breast) of the same molecule?
**A.** 65.7 µM

**Q.** What about the GI50 (DU-145 prostate) of the same molecule?
**A.** > 100 µM

**Q.** And the TGI (DU-145 prostate)?
**A.** > 100 µM

**Q.** And the GI50 (RXF 393 renal)?
**A.** 2.27 µM

**Q.** And the TGI (RXF 393 renal)?
**A.** 8.75 µM

**Q.** And the GI50 (NCI-H460 lung)?
**A.** 4.49 µM

**Q.** And the TGI (NCI-H460 lung)?
**A.** > 100 µM

**Q.** What about the GI50 (SF-295 CNS) of the same molecule?
**A.** 6.2 µM

**Q.** What about the TGI (SF-295 CNS) of the same molecule?
**A.** > 100 µM

**Q.** What about the GI50 (SF-268 CNS) of the same molecule?
**A.** 5.74 µM

**Q.** And the TGI (SF-268 CNS)?
**A.** > 100 µM

**Q.** What about the GI50 (OVCAR-3 ovarian) of the same molecule?
**A.** 7.45 µM

**Q.** What about the TGI (OVCAR-3 ovarian) of the same molecule?
**A.** > 100 µM

**Q.** What about the GI50 (EKVX NSCLC) of the same molecule?
**A.** 5.05 µM

**Q.** And the TGI (EKVX NSCLC)?
**A.** > 100 µM

**Q.** And the GI50 (MALME-3M melanoma)?
**A.** 3.86 µM

**Q.** What about the TGI (MALME-3M melanoma) of the same molecule?
**A.** 19.2 µM

**Q.** And the GI50 (UACC-62 melanoma)?
**A.** 6.46 µM

**Q.** And the TGI (UACC-62 melanoma)?
**A.** > 100 µM

**Q.** What about the GI50 (SK-MEL-2 melanoma) of the same molecule?
**A.** 3.34 µM

**Q.** And the TGI (SK-MEL-2 melanoma)?
**A.** 14 µM

**Q.** What about the GI50 (IGROV1 ovarian) of the same molecule?
**A.** 9.95 µM

**Q.** And the TGI (IGROV1 ovarian)?
**A.** > 100 µM

**Q.** What about the GI50 (HCC-2998 colon) of the same molecule?
**A.** 3.14 µM

**Q.** What about the TGI (HCC-2998 colon) of the same molecule?
**A.** 18.4 µM

**Q.** What about the GI50 (M14 melanoma) of the same molecule?
**A.** 3.15 µM

**Q.** And the TGI (M14 melanoma)?
**A.** 11.5 µM

**Q.** What about the GI50 (SK-MEL-28 melanoma) of the same molecule?
**A.** 8.22 µM

**Q.** And the TGI (SK-MEL-28 melanoma)?
**A.** > 100 µM

**Q.** And the GI50 (UACC-257 melanoma)?
**A.** 8.07 µM

**Q.** And the TGI (UACC-257 melanoma)?
**A.** > 100 µM

**Q.** What about the GI50 (SNB-19 CNS) of the same molecule?
**A.** 5.67 µM

**Q.** And the TGI (SNB-19 CNS)?
**A.** > 100 µM

**Q.** And the GI50 (K-562 leukemia)?
**A.** 3.08 µM

**Q.** What about the TGI (K-562 leukemia) of the same molecule?
**A.** > 100 µM

**Q.** And the GI50 (SK-MEL-5 melanoma)?
**A.** 3.45 µM

**Q.** And the TGI (SK-MEL-5 melanoma)?
**A.** 14.3 µM
